Assay results published in patent publication US4894458A, “Quinolonecarboxylic acid derivatives and their preparation” (Kyorin Pharmaceutical Co., Ltd., priority 1986, dated 1990).
Like-named read-outs stand apart in the source and are kept apart here.

Key:
Assay type in all cases: cell-based
[1] = test system: Enterobacter cloacae IID 977; assay: In vitro antibacterial activity (aerobic bacteria), MIC
[2] = test system: Peptococcus magnus KY 017; assay: In vitro antibacterial activity (anaerobic bacteria), MIC; settings: Finegoldia magna, KY017, Gram +, 10^6 cells/ml, read-out: MIC
Procedure: (§1) Minimal inhibitory concentrations (MICs) were determined in accordance with the method recommended by Japan Society of Chemotherapy.

[3] = test system: Clostridium difficile I-E; assay: as above; settings: Clostridioides difficile
[4] = test system: C. perfringens KYA 13123; assay: microbe, parasite or virus in culture; settings: Clostridium perfringens, KYA13123
[5] = test system: P. aeruginosa IFO 12689; assay: In vitro antibacterial activity (aerobic bacteria), MIC; settings: Pseudomonas aeruginosa, IFO12689
[6] = test system: Fusobacterium necrophorum S-45; assay: In vitro antibacterial activity (anaerobic bacteria), MIC
[7] = test system: Veillonella parvula KYA 10790; assay: as above
[8] = test system: Pst micros UPI 5464-1; assay: microbe, parasite or virus in culture
[9] = test system: P. cepacia GIFU 518; assay: In vitro antibacterial activity (aerobic bacteria), MIC; settings: Burkholderia cepacia, GIFU518
[10] = test system: Bacillus subtilis PCI 219; assay: as above
[11] = test system: F. varium KYA 8501; assay: In vitro antibacterial activity (anaerobic bacteria), MIC; settings: Fusobacterium varium, KYA8501
[12] = test system: Propionibacterium acens 11828; assay: as above
[13] = test system: Alcaligenes faecalis 0114002; assay: In vitro antibacterial activity (aerobic bacteria), MIC; settings: Alcaligenes faecalis, 0114002, aerobic, Gram -, 10^6 cells/ml
[14] = test system: Klebsiella pneumoniae KY(GN)6445; assay: as above
[15] = test system: Escherichia coli NIHJ JC-2; assay: as above; settings: NIHJJC2, aerobic, Gram -, 10^6 cells/ml
[16] = test system: P. aeruginosa IID 1210; assay: as above; settings: Pseudomonas aeruginosa, IID1210, aerobic, Gram -, 10^6 cells/ml
[17] = test system: B. thetaiotaomicron (0661); assay: In vitro antibacterial activity (anaerobic bacteria), MIC; settings: Bacteroides thetaiotaomicron
[18] = test system: C. ramosum; assay: as above; settings: Thomasclavelia ramosa
[19] = test system: Bacteroides fragilis GM 7000; assay: as above
[20] = test system: Citrobacter freundii IID 976; assay: In vitro antibacterial activity (aerobic bacteria), MIC; settings: Citrobacter freundii
[21] = test system: B. distasonis 8503; assay: In vitro antibacterial activity (anaerobic bacteria), MIC; settings: Parabacteroides distasonis, Gram -, 10^6 cells/ml
[22] = test system: Salmonella enteritidis IID 604; assay: In vitro antibacterial activity (aerobic bacteria), MIC; settings: Salmonella enterica
[23] = test system: Yersinia enterocolitica IID 981; assay: microbe, parasite or virus in culture; settings: IID981
[24] = test system: B. fragilis 0558; assay: In vitro antibacterial activity (anaerobic bacteria), MIC; settings: Bacteroides fragilis
[25] = test system: B. fragilis 25285; assay: as above; settings: Bacteroides fragilis
[26] = test system: E. coli ATCC 10536; assay: In vitro antibacterial activity (aerobic bacteria), MIC; settings: Escherichia coli, ATCC10536, Gram -, 10^6 cells/ml
Procedure: as §1

[27] = test system: Morganella morganii IID 602; assay: as above; settings: Morganella morganii, IID602, Gram -, 10^6 cells/ml, read-out: MIC
Procedure: as §1

[28] = test system: P. mirabilis IID 994; assay: as above; settings: Proteus mirabilis, IID994, Gram -, 10^6 cells/ml
Procedure: as §1

[29] = test system: Shigella sonnei IID 969; assay: as above; settings: IID969, Gram -, 10^6 cells/ml
Procedure: as §1

[30] = test system: Staphylococcus aureus 209 P; assay: as above; settings: Gram +, 10^6 cells/ml
Procedure: as §1

[31] = test system: Proteus vulgaris IFO 3167; assay: as above; settings: IFO3167, Gram -, 10^6 cells/ml
Procedure: as §1

[32] = test system: Pseudomonas aeruginosa V-1; assay: as above; settings: Pseudomonas aeruginosa, V1, aerobic; Gram -; 10^6 cells/ml; read-out: MIC
Procedure: as §1

[33] = test system: Acinetobacter anitratus IID 876; assay: as above; settings: Acinetobacter calcoaceticus, IID876, Gram -, 10^6 cells/ml, read-out: MIC
Procedure: as §1

[34] = test system: Serratia marcescens IID 618; assay: as above; settings: IID618, Gram -, 10^6 cells/ml
Procedure: as §1

[35] = test system: S. aureus IID 670 (Terajima); assay: as above; settings: Staphylococcus aureus, IID670, Gram +, 10^6 cells/ml
Procedure: as §1

[36] = test system: K. pneumoniae 1-220S; assay: as above; settings: Klebsiella pneumoniae, 1220S, Gram -, 10^6 cells/ml
Procedure: as §1

[37] = test system: S. epidermidis IID 866; assay: as above; settings: Staphylococcus epidermidis, IID866, Gram +, 10^6 cells/ml
Procedure: as §1

[38] = test system: P. maltophilia GIFU 2491; assay: as above; settings: Stenotrophomonas maltophilia, GIFU2491
[39] = test system: Eubacterium lentum GAI 5242; assay: In vitro antibacterial activity (anaerobic bacteria), MIC; settings: Eggerthella lenta, GAI5242
[40] = test system: Peptostreptococcus anaerobius KYA 27337; assay: as above
[41] = anaerobic, Gram +, 10^6 cells/ml
[42] = anaerobic, Gram +, 10^6 cells/ml, read-out: MIC
[43] = anaerobic, Gram -, 10^6 cells/ml, read-out: MIC
[44] = IID976, aerobic, Gram -, 10^6 cells/ml
[45] = aerobic, Gram -, 10^6 cells/ml, read-out: MIC

Measured: MIC

Cc1c(N2CCNCC2)c(F)cc2c(=O)c(C(=O)O)cn(C3CC3)c12 [Exp. 19, 1-Cyclopropyl-6-fluoro-1,4-dihydro-8-methyl-4-oxo-7-(1-piperazinyl)-3-quinolinecarboxylic acid]
0.05 µg/mL: [1]; IID977 | [10]; PCI219 | [14] | [20]; IID976 | [22] | [23] | [26] | [34] | [36]
0.1 µg/mL: [27] | [32]
0.025 µg/mL: [28] | [29] | [31]
3.13 µg/mL: [3] | [11]
0.78 µg/mL: [5] | [9]; aerobic, Gram -, 10^6 cells/ml | [16] | [19]; GM7000 | [25] | [40]; KYA27337
0.2 µg/mL: [4] | [30] | [33] | [35] | [37] | [39]
6.25 µg/mL: [12]; [42] | [17]; [43] | [18]; [42]
0.39 µg/mL: [2] | [6]; S45 | [7]; KYA10790 | [8]; [41] | [13] | [24] | [38]
1.56 µg/mL: [21]; read-out: MIC
0.125 µg/mL: [15]; read-out: MIC

Cc1c(N2C[C@@H](C)[C@@H](N)C2)c(F)cc2c(=O)c(C(=O)O)cn(C3CC3)c12 (relative stereo) [Ex. 28, 7-(3,4-cis-3-Amino-4-methyl-1-pyrrolidinyl)-1-cyclopropyl-6-fluoro-1,4-dihydro-8-methyl-4-oxo-3-quinolinecarboxylic acid]
0.2 µg/mL: [17] | [19]; GM7000 | [40]; KYA27337
0.05 µg/mL: [8] | [33] | [34] | [36] | [37] | [39]
0.39 µg/mL: [3] | [5] | [9]; aerobic, Gram -, 10^6 cells/ml | [16] | [21]
0.78 µg/mL: [11] | [12] | [18]; [41]
0.025 µg/mL: [1]; IID977 | [2] | [22] | [27] | [28] | [30] | [35]
0.1 µg/mL: [4] | [7]; KYA10790 | [13] | [24] | [25] | [32] | [38]
0.0125 µg/mL: [10]; PCI219 | [14] | [20]; [44] | [23]
0.0063 µg/mL: [15] | [26] | [29] | [31]

Cc1c(N2CCC(N)C2)c(F)cc2c(=O)c(C(=O)O)cn(C3CC3)c12 (centres unmarked) [Exp. 18, 7-(3-Amino-1-pyrrolidinyl)-1-cyclopropyl-6-fluoro-1,4-dihydro-8-methyl-4-oxo-3-quinolinecarboxylic acid]
0.025 µg/mL: [1]; IID977, aerobic, Gram -, 10^6 cells/ml, read-out: MIC | [10]; PCI219, aerobic, Gram +, 10^6 cells/ml, read-out: MIC | [14]; [45] | [20]; IID976, aerobic, Gram -, 10^6 cells/ml, read-out: MIC | [22]; [45]
0.1 µg/mL: [6]; S45, anaerobic, Gram -, 10^6 cells/ml, read-out: MIC | [7]; KYA10790, anaerobic, Gram -, 10^6 cells/ml, read-out: MIC | [8]; [42] | [13]; read-out: MIC | [24]; [43] | [38]; [45] | [40]; KYA27337, anaerobic, Gram +, 10^6 cells/ml, read-out: MIC
0.0125 µg/mL: [26] | [28] | [29] | [31]
0.78 µg/mL: [3]; [42] | [11]; [43] | [12]; [42] | [17]; [43]
0.2 µg/mL: [5]; [45] | [9]; [45] | [16]; read-out: MIC | [19]; GM7000, anaerobic, Gram -, 10^6 cells/ml, read-out: MIC | [25]; [43] | [39]; [42]
≤ 0.0032 µg/mL: [15]; read-out: MIC
0.05 µg/mL: [2] | [4] | [23] | [27] | [30] | [32] | [33] | [34] | [35] | [36] | [37]
0.39 µg/mL: [21]; read-out: MIC
1.56 µg/mL: [18]

Cc1c(N2C[C@@H](C)[C@H](N)C2)c(F)cc2c(=O)c(C(=O)O)cn(C3CC3)c12 (relative stereo) [Ex. 27, 7-(3,4-trans-3-Amino-4-methyl-1-pyrrolidinyl)-1-cyclopropyl-6-fluoro-1,4-dihydro-8-methyl-4-oxo-3-quinolinecarboxylic acid]
0.78 µg/mL: [11] | [12]
0.0125 µg/mL: [10]; PCI219 | [14]
0.05 µg/mL: [8] | [24] | [25] | [27] | [34] | [37] | [38] | [39]
0.1 µg/mL: [4] | [7]; KYA10790 | [13] | [19]; GM7000
0.39 µg/mL: [3] | [5] | [16] | [18]; [41] | [21]
0.2 µg/mL: [9] | [17] | [32] | [40]; KYA27337
0.0063 µg/mL: [15] | [20]; [44] | [26] | [29] | [31]
0.025 µg/mL: [1]; IID977 | [2] | [22] | [23] | [28] | [30] | [33] | [35] | [36]
